These results are taken from US20230406853A1, “COVALENT CDK2-BINDING COMPOUNDS FOR THERAPEUTIC PURPOSES” (Umbra Therapeutics, Inc., priority 2021, published 2023).

The test has as its target CycE1-CDK2 (Homo sapiens, UniProt P24941). Description: Cdk2 Enzymatic TR-FRET Assay. The format is biochemical. Particulars: CDK2/CycE 5 nM, ATP 100 μM, 60 minutes pre-incubation with compound; read-out: CDK2 Kinase. From the text: A TR-FRET system was used to detect CycE1-CDK2 kinase activity. The assay used a Europium-labeled anti-phospho-Ser/Thr antibody and ULight™-labeled peptide substrate (eIF4E-binding protein 1). When CycE1-CDK2 phosphorylates the peptide the phosphorylated Thr is recognized by the Europium-labeled anti-phospho-Ser/Thr antibody. Upon excitation of the Europium donor fluorophore at 337 nm, energy is transferred to the ULight™ acceptor dye on the substrate, resulting in the emission of light at 665 nm. The fluorescent signal is proportional to the level of ULight™ peptide phosphorylation and to the kinase activity.
The stock solution was prepared as follows: • 1× Reaction buffer: 50 mM HEPES pH 7.5, 10 mM MgCl2, 0.5 mM TCEP, 0.01% Tween®20, 1 mM EGTA, 0.001% fatty acid free (faf)-BSA; • 1× Detection buffer: equilibrate the Detection buffer at RT for at least 20 minutes then dilute 10-fold the stock in water; • 4×ENZYME mix: CDK2/CycE enzyme (5 nM final concentration in kinase reaction) in 1× Reaction buffer; • 4×SUBSTRATE mix: 4E-BP substrate (50 nM final concentration in kinase reaction)+ATP (100 μM final concentration in kinase reaction) in 1× Reaction buffer • 2×STOP/DETECTION mix: EDTA (10 mM final concentration in assay)+Anti-Phosphate antibody (0.5 nM final concentration in assay) in 1× Detection buffer • Neutral Control: Assay with no inhibition (MAX activity) • Inhibitor Control: Assay with IC100 (1 mM) reference inhibitor JNJ7706621 (MIN activity)
The assay was assembled directly in a white, small volume, Proxiplate (PerkinElmer) as follows: • Step 1: Charge compounds=5 μL/well • Step 2: Charge kinase=2.5 μL/well→total volume 7.5 μL/well • The plate is sealed and incubated at room temperature for 60 minutes • Step 3: Substrate mix (substrate/ATP)=2.5 μL/well→total enzymatic reaction volume 10 μL/well • The plate is sealed and incubated at room temperature for 60 minutes • Step 4: Stop/Detection mix (EDTA/antibody)=10 μL/well→total volume 20 μL/well • The plate is sealed and incubated at room temperature for at least 2 hours and fluorescence signal is measured at PHERAstar FSX The reading conditions are the followings for PHERAstar FSX:
A 384-microtiter plate (MTP), containing 20 test compounds in eight-points dose response, is prepared. Test compounds dose response curves are prepared in automation in 100% DMSO in a CyBio Felix, starting from a DMSO stock solution of 10 mM. To obtain the eight-points dose-response curve, a serial dilution protocol in 100% DMSO is performed for each compound by using a 96 MTP as a support. 20 μL of the 10 mM stock solutions are transferred in row A of a 96 MTP U-bottom from column 2 to 11 for a total of 10 compounds/plate. Starting from the 10 mM stock, serial dilutions across rows, from A to B and proceeding up to H, are performed for each compound by transferring 6.3 μL of the more concentrated fluid in 13.7 μL of 100% DMSO.
In order to generate duplicate data points each well of the 96 MTP is then replicated into two wells of a 384 MTP plate for each compound and for each concentration to be tested. The 384 MTP compound plate is used as source plate in a “mother to child” process with a CyBi®-Well dispenser in which 1 μL of compound is moved into a destination plate pre-filled with 24 μL of reaction buffer, obtaining 2× concentrated compound solution.
Genedata Screener® 17.0 was used for data analysis. In the implemented workflow, the following calculations were conducted: • Calculate the Response Value (KRV) from the respective original data as follow:
HTRF Assay: Ratio=665 nm_FRET/620 nm_Ab*10000 • Calculate the % Inhibition of the compound (Inhibitory effect). KRV was normalized versus Neutral Controls and Inhibitor Controls (JNJ7706621) to obtain Activity % according to the following formula:
Activity %=−100*(x−<Neutral Control>)/(<Inhibitor Control>−<Neutral Control>) […]

Some results are limits rather than exact numbers.

Take `CS(=O)(=O)N1CCC(Nc2ncc3cc(C(F)F)c(=O)n(CCOC(=O)c4ccc(S(=O)(=O)n5cncn5)cc4)c3n2)CC1` [Compound 226]: the IC50 is under 10 µM.

Regarding `CS(=O)(=O)N1CCC(Nc2ncc3cc(C(F)F)c(=O)n(CCOC(=O)c4ccc(S(=O)(=O)n5cnc(C6CC6)n5)cc4)c3n2)CC1` [Compound 227], the IC50 was under 10 µM. The same measure for `CS(=O)(=O)N1CCC(Nc2ncc3ccc(=O)n(CC(=O)Nc4ccc(S(=O)(=O)n5cncn5)cc4)c3n2)CC1` [Compound 228]: under 10 µM; for `CS(=O)(=O)N1CCC(Nc2ncc3ccc(=O)n(CC(=O)Nc4ccc(S(=O)(=O)n5cnc(-c6ccccc6)n5)cc4)c3n2)CC1` [Compound 229]: under 10 µM; for `CS(=O)(=O)N1CCC(Nc2ncc3ccc(=O)n(CCOCCCS(=O)(=O)n4cnc(-c5ccccc5)n4)c3n2)CC1` [Compound 230]: 10 to 100 µM. Turning to `CS(=O)(=O)N1CCC(Nc2ncc3ccc(=O)n(CCOCCCS(=O)(=O)n4cncn4)c3n2)CC1` [Compound 231], the IC50 was under 10 µM. In the case of `CS(=O)(=O)N1CCC(Nc2ncc3ccc(=O)n(CC(=O)Nc4ccc(S(=O)(=O)n5cnc(C6CC6)n5)cc4)c3n2)CC1` [Compound 232] it was under 10 µM; in that of `CS(=O)(=O)N1CCC(Nc2ncc3ccc(=O)n(CCOCCCS(=O)(=O)n4cnc(C5CC5)n4)c3n2)CC1` [Compound 233], under 10 µM.

`CS(=O)(=O)N1CCC(Nc2ncc3cc(C(F)F)c(=O)n(CC(=O)Nc4ccc(S(=O)(=O)n5cnc(C6CC6)n5)cc4)c3n2)CC1` [Compound 234]: the IC50 was under 10 µM.

As to `CS(=O)(=O)N1CCC(Nc2ncc3ccc(=O)n(CC(=O)NCc4ccc(S(=O)(=O)n5cnc(C6CC6)n5)cc4)c3n2)CC1` [Compound 235], the IC50 is under 10 µM. Regarding `CS(=O)(=O)N1CCC(Nc2ncc3ccc(=O)n(CC(=O)NCc4ccc(S(=O)(=O)n5cncn5)cc4)c3n2)CC1` [Compound 236], the IC50 is under 10 µM.

Consider `Cc1cc(NC(=O)Cn2c(=O)ccc3cnc(NC4CCN(S(C)(=O)=O)CC4)nc32)ccc1S(=O)(=O)n1cncn1` [Compound 237], for which the IC50 was under 10 µM. The same measure for `Cc1cc(NC(=O)Cn2c(=O)ccc3cnc(NC4CCN(S(C)(=O)=O)CC4)nc32)ccc1S(=O)(=O)n1cnc(-c2ccccc2)n1` [Compound 238]: under 10 µM; for `Cc1cc(NC(=O)Cn2c(=O)ccc3cnc(NC4CCN(S(C)(=O)=O)CC4)nc32)ccc1S(=O)(=O)n1cnc(C2CC2)n1` [Compound 239]: under 10 µM; for `CS(=O)(=O)N1CCC(Nc2ncc3ccc(=O)n(CC(=O)NCc4ccc(S(=O)(=O)n5cnc(-c6ccccc6)n5)cc4)c3n2)CC1` [Compound 240]: under 10 µM. With `CS(=O)(=O)N1CCC(Nc2ncc3ccc(=O)n(Cc4ccc(S(=O)(=O)n5cncn5)cc4)c3n2)CC1` [Compound 241], the IC50 was under 10 µM. The same measure for `CS(=O)(=O)N1CCC(Nc2ncc3ccc(=O)n(Cc4ccc(S(=O)(=O)n5cnc(-c6ccccc6)n5)cc4)c3n2)CC1` [Compound 242]: under 10 µM; for `CS(=O)(=O)N1CCC(Nc2ncc3ccc(=O)n(Cc4ccc(S(=O)(=O)n5cnc(C6CC6)n5)cc4)c3n2)CC1` [Compound 243]: under 10 µM. In the case of `CS(=O)(=O)N1CCC(Nc2ncc3ccc(=O)n(CCCS(=O)(=O)n4cncn4)c3n2)CC1` [Compound 244] it was under 10 µM. Regarding `CS(=O)(=O)N1CCC(Nc2ncc3ccc(=O)n(CCCS(=O)(=O)n4cnc(C5CC5)n4)c3n2)CC1` [Compound 245], the IC50 was under 10 µM. Take `CS(=O)(=O)N1CCC(Nc2ncc3ccc(=O)n(CCCS(=O)(=O)n4cnc(-c5ccccc5)n4)c3n2)CC1` [Compound 246]: the IC50 was under 10 µM.

On to `CNc1ncc2ccc(=O)n(CC(=O)Nc3ccc(S(=O)(=O)n4cncn4)cc3)c2n1` [Compound 247], for which the IC50 was under 10 µM. `CNc1ncc2ccc(=O)n(CC(=O)Nc3ccc(S(=O)(=O)n4cnc(C5CC5)n4)cc3)c2n1` [Compound 248]: the IC50 is under 10 µM.
